From patent US20260159512A1, “BCAT2 INHIBITORS” (AGIOS PHARMACEUTICALS, INC., priority 2021, published 2026)
Values joined by “and” are separate entries in the source; they are usually repeats but may differ in a detail not shown here. Equal values may be shown once.

Legend:
Details in all cases: average where tested multiple times
[1] = target: T1, BCAT2 (Homo sapiens, UniProt O15382); assay: BCAT2 in vitro enzyme inhibition assay (resazurin/diaphorase-coupled fluorescence); assay type: biochemical
T1 sequence (O15382 28-392): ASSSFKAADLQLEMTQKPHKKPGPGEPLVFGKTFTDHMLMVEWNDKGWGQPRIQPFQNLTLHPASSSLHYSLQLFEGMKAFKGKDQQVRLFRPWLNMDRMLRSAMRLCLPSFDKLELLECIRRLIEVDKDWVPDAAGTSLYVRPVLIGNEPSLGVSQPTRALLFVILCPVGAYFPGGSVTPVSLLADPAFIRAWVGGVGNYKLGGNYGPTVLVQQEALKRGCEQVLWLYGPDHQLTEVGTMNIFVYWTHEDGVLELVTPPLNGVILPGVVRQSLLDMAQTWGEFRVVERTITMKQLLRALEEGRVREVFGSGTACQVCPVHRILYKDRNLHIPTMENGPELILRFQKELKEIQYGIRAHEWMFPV
Outline: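 Coupled fluorescence readout: glutamate formed from L-leucine/α-ketoglutarate transamination drives GDH/NAD/diaphorase reduction of resazurin (Ex 540/Em 590). Human BCAT2 was first exposed 1 h at room temperature to compound, top final 100 μM in 3-fold, 10-point series; substrate reaction ran 1 h before SDS quench, in technical duplicate with DMSO max and enzyme-free min controls.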

[2] = target: T2, hBCAT1 (Homo sapiens, UniProt P54687); assay: BCAT1 in vitro enzyme inhibition assay (resazurin/diaphorase-coupled fluorescence); assay type: biochemical
T2 sequence (P54687 1-386): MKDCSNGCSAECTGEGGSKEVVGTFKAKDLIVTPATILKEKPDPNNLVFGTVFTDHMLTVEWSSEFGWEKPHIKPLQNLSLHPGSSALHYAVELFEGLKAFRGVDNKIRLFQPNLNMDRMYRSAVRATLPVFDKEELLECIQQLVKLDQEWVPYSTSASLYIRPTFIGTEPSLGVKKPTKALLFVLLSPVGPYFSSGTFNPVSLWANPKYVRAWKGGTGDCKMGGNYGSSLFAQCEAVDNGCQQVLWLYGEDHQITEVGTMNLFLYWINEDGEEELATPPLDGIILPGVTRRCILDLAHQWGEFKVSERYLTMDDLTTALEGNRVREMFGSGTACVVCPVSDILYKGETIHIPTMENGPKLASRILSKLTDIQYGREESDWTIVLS
Outline: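 Ten-point, 3-fold compound series (top final 100 μM, delivered 1:50 from 50× DMSO stocks) tested against hBCAT1. Inhibition detected via diaphorase-coupled resazurin fluorescence, duplicate wells, with values from repeated runs averaged.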

[3] = target: T1, BCAT2; assay: BCAT2 in vitro cell inhibition using engineered A549 cells (KMV cell assay, 13C6-KMV by LC-MS/MS); assay type: cell-based; set-up: The result was an engineered A549 cell line that expressed endogenous BCAT2; endogenous in cells; host or cells: A549 cells with MUT and BCAT1 knocked out by CRISPR/CAS9

IC50 [1] | IC50 [2] | IC50 [3] | Compound
≤ 100 nM | 500 to 1000 nM | 100 to 500 nM | CO[C@@H]1C[C@@H](NC(=O)c2ncc(Cl)s2)C[C@@H](n2c(CC(C)C)nc3cnc(-c4ccccn4)cc32)C1 (stereo in doubt) [Example 426, 5-chloro-N-((1S,3R,5R)-3-(2-isobutyl-6-(pyridin-2-yl)-1H-imidazo[4,5-c]pyridin-1-yl)-5-methoxycyclohexyl)thiazole-2-carboxamide]
≤ 100 nM | < 500 nM | ≤ 100 nM | CO[C@H]1C[C@@H](NC(=O)c2ncc(Cl)s2)C[C@@H](n2c(CC(C)C)nc3cnc(-c4nc[nH]n4)cc32)C1 (stereo in doubt) [Example 432, 5-chloro-N-((1S,3R,5S)-3-(2-isobutyl-6-(1H-1,2,4-triazol-3-yl)-1H-imidazo[4,5-c]pyridin-1-yl)-5-methoxycyclohexyl)thiazole-2-carboxamide]
≤ 100 nM | 1000 to 5000 nM | 100 to 500 nM | O=C(NC1CCCC(n2c(-c3ccccn3)nc3cnc(-c4nnco4)cc32)C1)c1ccc(Br)s1 (stereo not drawn) [Example 1, N-(3-(6-(1,3,4-oxadiazol-2-yl)-2-(pyridin-2-yl)-1H-imidazo[4,5-c]pyridin-1-yl)cyclohexyl)-5-bromothiophene-2-carboxamide]
≤ 100 nM | 500 to 1000 nM | 100 to 500 nM | O=C(NC1CCCC(n2c(-c3ncccc3F)nc3cnc(-c4nnco4)cc32)C1)c1ccc(Br)s1 (stereo not drawn) [Example 2, 5-bromo-N-(3-(2-(3-fluoropyridin-2-yl)-6-(1,3,4-oxadiazol-2-yl)-1H-imidazo[4,5-c]pyridin-1-yl)cyclohexyl)thiophene-2-carboxamide]
≤ 100 nM | 1000 to 5000 nM | 100 to 500 nM | O=C(NC1CCCC(n2c(-c3ccccn3)nc3cnc(-c4cnco4)cc32)C1)c1ccc(Br)s1 (stereo not drawn) [Example 3, 5-bromo-N-(3-(6-(oxazol-5-yl)-2-(pyridin-2-yl)-1H-imidazo[4,5-c]pyridin-1-yl)cyclohexyl)thiophene-2-carboxamide]
≤ 100 nM | > 5000 nM | 500 to 1000 nM | O=C(NC1CCCCC(n2c(-c3ccccn3)nc3cnc(-n4nccn4)cc32)C1)c1ncc(C(F)F)s1 (stereo not drawn) [Example 4, 5-(difluoromethyl)-N-(3-(2-(pyridin-2-yl)-6-(2H-1,2,3-triazol-2-yl)-1H-imidazo[4,5-c]pyridin-1-yl)cycloheptyl)thiazole-2-carboxamide]
≤ 100 nM | < 500 nM | ≤ 100 nM | O=C(N[C@H]1CCC[C@@H](n2c(-c3ccccn3)nc3cnc(-c4ncco4)cc32)C1)c1ccc(Br)s1 [Example 5, 5-bromo-N-((1S,3R)-3-(6-(oxazol-2-yl)-2-(pyridin-2-yl)-1H-imidazo[4,5-c]pyridin-1-yl)cyclohexyl)thiophene-2-carboxamide]
≤ 100 nM | < 500 nM | ≤ 100 nM | O=C(N[C@H]1CCC[C@@H](n2c(-c3ncccc3F)nc3cnc(-c4ncco4)cc32)C1)c1ccc(Br)s1 [Example 6, 5-bromo-N-((1S,3R)-3-(2-(3-fluoropyridin-2-yl)-6-(oxazol-2-yl)-1H-imidazo[4,5-c]pyridin-1-yl)cyclohexyl)thiophene-2-carboxamide]
≤ 100 nM | < 500 nM | ≤ 100 nM | O=C(N[C@H]1CCC[C@@H](n2c(-c3ccccc3F)nc3cnc(-c4ncco4)cc32)C1)c1ccc(Br)s1 [Example 7, 5-bromo-N-((1S,3R)-3-(2-(2-fluorophenyl)-6-(oxazol-2-yl)-1H-imidazo[4,5-c]pyridin-1-yl)cyclohexyl)thiophene-2-carboxamide]
≤ 100 nM | < 500 nM | ≤ 100 nM | C#Cc1cnc(C(=O)N[C@H]2CCC[C@@H](n3c(-c4ccccc4F)nc4cnc(-c5ncco5)cc43)C2)s1 [Example 8, 5-ethynyl-N-((1S,3R)-3-(2-(2-fluorophenyl)-6-(oxazol-2-yl)-1H-imidazo[4,5-c]pyridin-1-yl)cyclohexyl)thiazole-2-carboxamide]
≤ 100 nM | 500 to 1000 nM | ≤ 100 nM and 100 to 500 nM | O=C(N[C@H]1CCC[C@@H](n2c(-c3ccccn3)nc3cnc(-n4cncn4)cc32)C1)c1ccc(Br)s1 [Example 9, 5-bromo-N-((1S,3R)-3-(2-(pyridin-2-yl)-6-(1H-1,2,4-triazol-1-yl)-1H-imidazo[4,5-c]pyridin-1-yl)cyclohexyl)thiophene-2-carboxamide]
≤ 100 nM | 1000 to 5000 nM | 500 to 1000 nM | O=C(N[C@H]1CCC[C@@H](n2c(-c3ccccn3)nc3cnc(-n4ccnn4)cc32)C1)c1ccc(Br)s1 [Example 10, 5-bromo-N-((1S,3R)-3-(2-(pyridin-2-yl)-6-(1H-1,2,3-triazol-1-yl)-1H-imidazo[4,5-c]pyridin-1-yl)cyclohexyl)thiophene-2-carboxamide]
≤ 100 nM | < 500 nM | ≤ 100 nM | O=C(N[C@H]1CCC[C@@H](n2c(-c3ccccn3)nc3cnc(-n4nccn4)cc32)C1)c1ccc(Br)s1 [Example 11, 5-bromo-N-((1S,3R)-3-(2-(pyridin-2-yl)-6-(2H-1,2,3-triazol-2-yl)-1H-imidazo[4,5-c]pyridin-1-yl)cyclohexyl)thiophene-2-carboxamide]
≤ 100 nM | < 500 nM | 100 to 500 nM | O=C(N[C@H]1CCC[C@@H](n2c(-c3ncccc3F)nc3cnc(-n4ccnn4)cc32)C1)c1ccc(Br)s1 [Example 12, 5-bromo-N-((1S,3R)-3-(2-(3-fluoropyridin-2-yl)-6-(1H-1,2,3-triazol-1-yl)-1H-imidazo[4,5-c]pyridin-1-yl)cyclohexyl)thiophene-2-carboxamide]
≤ 100 nM | < 500 nM | ≤ 100 nM | O=C(N[C@H]1CCC[C@@H](n2c(-c3ncccc3F)nc3cnc(-n4nccn4)cc32)C1)c1ccc(Br)s1 [Example 13, 5-bromo-N-((1S,3R)-3-(2-(3-fluoropyridin-2-yl)-6-(2H-1,2,3-triazol-2-yl)-1H-imidazo[4,5-c]pyridin-1-yl)cyclohexyl)thiophene-2-carboxamide]
≤ 100 nM | < 500 nM | ≤ 100 nM | O=C(N[C@H]1CCC[C@@H](n2c(-c3ccccc3F)nc3cnc(-n4ccnn4)cc32)C1)c1ccc(Br)s1 [Example 14, 5-bromo-N-((1S,3R)-3-(2-(2-fluorophenyl)-6-(1H-1,2,3-triazol-1-yl)-1H-imidazo[4,5-c]pyridin-1-yl)cyclohexyl)thiophene-2-carboxamide]
≤ 100 nM | < 500 nM | ≤ 100 nM | O=C(N[C@H]1CCC[C@@H](n2c(-c3ccccc3F)nc3cnc(-n4nccn4)cc32)C1)c1ccc(Br)s1 [Example 15, 5-bromo-N-((1S,3R)-3-(2-(2-fluorophenyl)-6-(2H-1,2,3-triazol-2-yl)-1H-imidazo[4,5-c]pyridin-1-yl)cyclohexyl)thiophene-2-carboxamide]
≤ 100 nM | < 500 nM | ≤ 100 nM | O=C(N[C@H]1CCC[C@@H](n2c(-c3ncccc3F)nc3cnc(-n4cncn4)cc32)C1)c1ccc(Br)s1 [Example 16, 5-bromo-N-((1S,3R)-3-(2-(3-fluoropyridin-2-yl)-6-(1H-1,2,4-triazol-1-yl)-1H-imidazo[4,5-c]pyridin-1-yl)cyclohexyl)thiophene-2-carboxamide]
≤ 100 nM | < 500 nM | ≤ 100 nM | Cc1cnc(-c2cc3c(cn2)nc(-c2ccccn2)n3[C@@H]2CCC[C@H](NC(=O)c3ccc(Br)s3)C2)o1 [Example 18, 5-bromo-N-((1S,3R)-3-(6-(5-methyloxazol-2-yl)-2-(pyridin-2-yl)-1H-imidazo[4,5-c]pyridin-1-yl)cyclohexyl)thiophene-2-carboxamide]
≤ 100 nM | < 500 nM | ≤ 100 nM | O=C(N[C@H]1CCC[C@@H](n2c(-c3ccccn3)nc3cnc(-n4nccn4)cc32)C1)c1ncc(Br)s1 [Example 19, 5-bromo-N-((1S,3R)-3-(2-(pyridin-2-yl)-6-(2H-1,2,3-triazol-2-yl)-1H-imidazo[4,5-c]pyridin-1-yl)cyclohexyl)thiazole-2-carboxamide]
